According to patent US5869456A, “Use of glutathione diesters” (priority 1995, dated 1999):
Read-outs that look alike come from different tables or passages of the source.

Assays:
[1] = tested on: Purified Human T-Lymphoctyes; assay: Thiol levels in purified human T-lymphocytes after treatment with GSH esters; format: cell-based; conditions: purified T-cells, 0.3 ml 80 mM thiol to 0.9 ml cells, 37° C.
Procedure: HPLC Analysis of Cellular Thiols. […] Flow rates were 1 ml/min.
Purified T-cells were suspended in PBS. […] After incubation at 37° C. for the indicated times, cells were recovered and processed as described for PBM in Table 4.
Where values for cysteine are not reported, levels are <0.3 nmol/10^7cells (for 7 min. samples) or <0.5 nmol/10^7 cells (for 90 mni. samples).

[2] = tested on: Hamsters (liver, kidney, blood plasma); assay: Thiol levels in hamsters treated with GSH esters; format: in vivo, Syrian hamster; conditions: 1 hour later
[3] = tested on: Human Erythrocytes; conditions: for Thiol Levels, Total / Thiol Levels, thiol found GSH / Thiol Levels, thiol found GSH-ME: erythrocyte suspension, 80 mM thiol added (one-third vol), 37° C.
Procedure: Analysis of Erythrocyte Thiol by DTNB. Cell supernatant (40 μl) was added to 1 ml of 6 mM DTNB (in 143 mM phosphate buffer, pH 7.5, containing 6.3 mM EDTA). The change in absorbance at 412 nm after 1 min was converted to a value for total thiol using a GSH standard curve. The GSH standard were prepared in a 1:2:2 mixture of PBS: 0.435M acetic acid: 10% SSA (containing 2 mM EDTA) ("RBC Mix").
(§1) Derivatization of Cell Thiols for HPLC Analysis. Derivatization mixtures are as follows: Erythrocyte Lysates: 155 μl 50 mM DTPA (pH 7), 110 μl 3.33% SSA, total 180 μl cell supernatant plus "RBC Mix", 10 μl 0.1M mBBr (in CH3 CN), 100 μl of 2M Tris·HCl (pH 9 at room temperature). The samples were placed in the dark for 20-30 minutes at room temperature; the reaction was quenched with 90 μl of glacial acetic acid. Reduced Erythocyte Lysates. 155 μl mM DTT in 50 mM DTPA (pH 7), SSA, sample, and "RBC Mix" as above Tris was added and the samples were agitated at room temperature for 25 min. 20 μl Tris and 10 μl mBBr were added; the derivatization proceeds as above.
(§2) HPLC Analysis of Cellular Thiols. Samples were chromatographed on an Altex Ultrasphere ODS reverse phase column (5μ; 4.6 mm×25 cm), using one of three gradients: (1) Buffer A: 12.8% MeOH, 0.25% acetic acid, 87.75% H2 O, pH 3.9. (2) Buffer B: 90.0% MeOH, 0.25% acetic acid, 9.75% H2 O (no pH Adjustment). (3) Gradient 1: Initial, 100% A, linear gradient to 50% B at 25 min., linear gradient to 100% B at 35 min., wash with 100% B to 39.5 min.; step to 100% A at 40 min.; equilibration with 100% A to 48 min. Gradient 2: Initial, 100% A, linear gradient to 75% B at 25 min., remainder identical to Gradient 1. Gradient 3: Initial, 100% A, linear gradient to 65% A, 35% B at 25 minutes, remainder identical to gradient 1. Flow rates were 1 ml/min.
Whole blood was collected with EDTA or DTPA (0.5M, pH 7) as anticoagulant (0.4 ml/8-12 ml blood). Plasma and buffy coat were removed after centrifugation and the erythrocytes washed 3 times with 1-2 vol PBS/5 mM DTPA or EDTA. Packed erythrocytes were suspended in one-half vol. PBS. To each suspension was one-third vol. GSH, GSH-ME or GSH-DE (80 mM, pH 7). After incubation at 37° C. for the indicated times, aliquots were removed, washed (3-4×) with PBS/EDTA/DTPA, lysed with one volume 0.435M acetic acid, protein-precipitated with one volume 10% SSA/2 mM DTPA, and centrifuged to remove cell debris. Supernatants were derivatized for HPLC analysis as described in Materials and Methods.

[4] = tested on: Human Erythrocytes; conditions: whole blood + one-half volume 120 mM thiol, 30 minutes, 37° C.
Procedure: as §1, §2
Whole blood (see Table 1) was mixed with one-half volume of 120 mM GSH, GSH-ME, or GSH-DE at pH 7. The samples were incubated for 30 minutes at 37° C. and then centrifuged. After removal of plasma and buffy coat, the erythrocytes were washed and processed as described in Table 1.

[5] = tested on: Human Peripheral Blood Mononuclear Cells; conditions: 6 ml whole blood + 3 ml 60 mM thiol, 30 min, 37° C.; PBM
Procedure: (§3) T Cell and PBM Lysates: 120 μl 4 mM DTPA, total 360 μl sample/4.31% SSA (containing 0.5 mM DTPA), 100 μl Tris, 5μ mBBr; 20 min. in the dark, 15 μl glacial acetic acid.
as §2
6 mls. whole blood (see Table 1) was mixed with 3 ml of 60 mM GSH, GSH-ME or GSH-DE at pH 7. After 30 min incubation at 37° C., PBM were isolated by Ficoll-Hypaque density gradient centrifugation. Cells were washed with 14 ml PBS (2-3) and lysed with 4.31% SSA/0.5 mM DTPA (400 μl). After centrifugation, the supernatants were derivatized for HPLC analysis.

[6] = tested on: Human Peripheral Blood Mononuclear Cells; conditions: for Thiol Levels, Total / Thiol Levels, thiol found GSH / Thiol Levels, thiol found GSH-ME: isolated PBM, 0.3 ml 80 mM thiol to 0.9 ml cells, 37° C.
Procedure: as §3, §2
PBM were isolated from whole blood (see Tables 1 and 3) washed with PBS, and re-suspended in PBS. To 0.9 ml cell suspension (5-8×10^6 cells) was added 0.3 ml of 80 mM GSH, GSH-ME or GSH-DE at pH 7. After incubation at 37° C. for the indicated times, the cells were recovered by centrifugation, washed with 14 ml PBS (2×), and lysed by addition of 4.31% of SSA/0.5 mM DTPA and 2-3 freeze-thaw cycles. After centrifugation, supernatants were derivatized for HPLC analysis.

CCCCS(=N)(=O)CCC(N)C(=O)O [BSO, L-buthionine sulfoximine]
Thiol Levels, thiol found GSH ([1]; 7 min, donor A): 2.39 ± 0.09 nmol/10^7 cells
Thiol Levels, thiol found GSH ([1]; 90 min, donor B): < 0.6 nmol/10^7 cells
Kidney thiol found GSH ([2]; fasted hamsters, BSO 6 mmol/kg I.P. 2 hours before thiol 5 mmol/kg, kidney): 1.00 ± 0.19 µmol/g
Liver thiol found GSH ([2]; fasted hamsters, BSO 6 mmol/kg I.P. 2 hours before thiol 5 mmol/kg, liver): 5.10 ± 0.51 µmol/g

CCOC(=O)CNC(=O)[C@H](CS)NC(=O)CC[C@H](N)C(=O)O [GSH-ME, glutathione monoethyl (glycyl) ester]
Thiol Levels, Total ([3]; 7 min): 2.65 ± 0.31 mM
Thiol Levels, thiol found GSH ([3]; 7 min): 1.72 ± 0.27 mM
Thiol Levels, thiol found GSH-ME ([3]; 7 min): 0.932 ± 0.04 mM
Thiol Levels, Total ([3]; 45 min): 3.49 ± 0.35 mM
Thiol Levels, thiol found GSH ([3]; 45 min): 1.83 ± 0.31 mM
Thiol Levels, thiol found GSH-ME ([3]; 45 min): 1.66 ± 0.04 mM
Thiol Levels, Total ([3]; 90 min): 3.57 ± 0.38 mM
Thiol Levels, thiol found GSH ([3]; 90 min): 1.90 ± 0.30 mM
Thiol Levels, thiol found GSH-ME ([3]; 90 min): 1.67 ± 0.08 mM
total RBC thiol levels ([3]; summary of Table 1): about 3 mM
Thiol Levels Found, GSH [4]: 2.35 ± 0.52 mM
Thiol Levels Found, GSH-ME [4]: 3.45 ± 0.73 mM
Thiol Levels Found, Total [4]: 5.80 ± 1.25 mM
Thiol Levels Found, GSH [5]: 1.46 nmol/10^6 cells
Thiol Levels Found, GSH-ME [5]: 2.08 nmol/10^6 cells
Thiol Levels Found, Total [5]: 3.54 nmol/10^6 cells
total thiols in human PBM ([6]; in 90 min, text summary of Table 4): 10.6 mM
Thiol Levels, Total ([6]; 7 min, donor A): 3.32 ± 0.19 nmol/10^6 cells
Thiol Levels, thiol found GSH ([6]; 7 min, donor A): 2.05 ± 0.08 nmol/10^6 cells
Thiol Levels, thiol found GSH-ME ([6]; 7 min, donor A): 1.27 ± 0.11 nmol/10^6 cells
Thiol Levels, Total ([6]; 45 min, donor B): 4.39 ± 0.25 nmol/10^6 cells
Thiol Levels, thiol found GSH ([6]; 45 min, donor B): 1.64 ± 0.06 nmol/10^6 cells
Thiol Levels, thiol found GSH-ME ([6]; 45 min, donor B): 2.75 ± 0.19 nmol/10^6 cells
Thiol Levels, Total ([6]; 90 min, donor A): 10.7 ± 1.3 nmol/10^6 cells
Thiol Levels, thiol found GSH ([6]; 90 min, donor A): 3.45 ± 0.39 nmol/10^6 cells
Thiol Levels, thiol found GSH-ME ([6]; 90 min, donor A): 7.23 ± 0.88 nmol/10^6 cells
Blood plasma levels of GSH ([2]; hamsters, 5 mmol/kg after BSO): not affected

N[C@@H](CCC(=O)N[C@@H](CS)C(=O)NCC(=O)O)C(=O)O [GSH, L-γ-glutamyl-L-cysteinyl-glycine]
Thiol Levels, thiol found GSH ([3]; 7 min): 1.91 ± 0.05 mM
Thiol Levels, thiol found GSH ([3]; 45 min): 2.04 ± 0.06 mM
Thiol Levels, thiol found GSH ([3]; 90 min): 1.83 ± 0.07 mM
Thiol Levels Found, GSH [4]: 2.12 ± 0.47 mM
Thiol Levels Found, Total [4]: 2.12 ± 0.47 mM
Thiol Levels, thiol found GSH ([6]; 7 min, donor A): 1.86 nmol/10^6 cells
Thiol Levels, thiol found GSH ([6]; 7 min, donor B): 1.51 nmol/10^6 cells
Thiol Levels, thiol found GSH ([6]; 45 min, donor B): 1.16 ± 0.06 nmol/10^6 cells
Thiol Levels, thiol found GSH ([6]; 90 min, donor A): 1.60 nmol/10^6 cells
